Measured values taken from ChEMBL document CHEMBL1255387, “Mechanism of hepatitis C virus RNA polymerase inhibition with dihydroxypyrimidines” (Antimicrob Agents Chemother, 2010).

Tests used:
[1] = biological target: T1, RNA-directed RNA polymerase (Hepacivirus hominis, UniProt O39930); test: Displacement of 50 uM PPi from NS5B in Hepatitis C virus
[2] = biological target: T1, RNA-directed RNA polymerase; test: Displacement of 100 uM PPi from NS5B in Hepatitis C virus
[3] = biological target: T1, RNA-directed RNA polymerase; test: Inhibition of NS5B-mediated RNA synthesis in Hepatitis C virus assessed as decrease in formation of full-length product after 45 mins
[4] = biological target: T1, RNA-directed RNA polymerase; test: Displacement of 0.1 uM UTP from NS5B in Hepatitis C virus
[5] = biological target: RNA-directed RNA polymerase (Hepacivirus hominis, UniProt O39930, G152E); test: Inhibition of NS5B G152E mutant-mediated RNA synthesis in Hepatitis C virus as decrease in formation of full-length product after 45 mins
[6] = biological target: T1, RNA-directed RNA polymerase; test: Displacement of 500 uM PPi from NS5B in Hepatitis C virus
[7] = biological target: RNA-directed RNA polymerase (Hepacivirus hominis, UniProt O39930, P156L); test: Inhibition of NS5B P156L mutant-mediated RNA synthesis in Hepatitis C virus as decrease in formation of full-length product after 45 mins
[8] = biological target: T1, RNA-directed RNA polymerase; test: Displacement of 1 uM UTP from NS5B in Hepatitis C virus
[9] = biological target: T1, RNA-directed RNA polymerase; test: Displacement of 5 uM UTP from NS5B in Hepatitis C virus

T1 sequence (O39930 whole entry): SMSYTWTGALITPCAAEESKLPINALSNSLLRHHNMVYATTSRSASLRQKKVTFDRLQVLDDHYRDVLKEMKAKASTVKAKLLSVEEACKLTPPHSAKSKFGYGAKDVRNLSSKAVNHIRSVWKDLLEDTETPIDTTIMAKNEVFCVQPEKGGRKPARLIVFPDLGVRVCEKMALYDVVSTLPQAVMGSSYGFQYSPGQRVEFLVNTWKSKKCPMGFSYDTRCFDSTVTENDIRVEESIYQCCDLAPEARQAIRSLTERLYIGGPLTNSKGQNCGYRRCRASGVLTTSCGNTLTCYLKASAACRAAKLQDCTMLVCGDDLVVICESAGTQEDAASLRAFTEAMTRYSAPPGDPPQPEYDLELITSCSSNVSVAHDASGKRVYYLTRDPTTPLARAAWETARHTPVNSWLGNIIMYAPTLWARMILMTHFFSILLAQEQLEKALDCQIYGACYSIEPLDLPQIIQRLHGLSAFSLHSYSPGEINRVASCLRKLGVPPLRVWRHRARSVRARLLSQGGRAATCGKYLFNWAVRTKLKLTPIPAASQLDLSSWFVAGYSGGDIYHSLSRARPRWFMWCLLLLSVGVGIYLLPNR
Sequence of RNA-directed RNA polymerase (Hepacivirus hominis, UniProt O39930, P156L) (O39930 entry or part of it P156L): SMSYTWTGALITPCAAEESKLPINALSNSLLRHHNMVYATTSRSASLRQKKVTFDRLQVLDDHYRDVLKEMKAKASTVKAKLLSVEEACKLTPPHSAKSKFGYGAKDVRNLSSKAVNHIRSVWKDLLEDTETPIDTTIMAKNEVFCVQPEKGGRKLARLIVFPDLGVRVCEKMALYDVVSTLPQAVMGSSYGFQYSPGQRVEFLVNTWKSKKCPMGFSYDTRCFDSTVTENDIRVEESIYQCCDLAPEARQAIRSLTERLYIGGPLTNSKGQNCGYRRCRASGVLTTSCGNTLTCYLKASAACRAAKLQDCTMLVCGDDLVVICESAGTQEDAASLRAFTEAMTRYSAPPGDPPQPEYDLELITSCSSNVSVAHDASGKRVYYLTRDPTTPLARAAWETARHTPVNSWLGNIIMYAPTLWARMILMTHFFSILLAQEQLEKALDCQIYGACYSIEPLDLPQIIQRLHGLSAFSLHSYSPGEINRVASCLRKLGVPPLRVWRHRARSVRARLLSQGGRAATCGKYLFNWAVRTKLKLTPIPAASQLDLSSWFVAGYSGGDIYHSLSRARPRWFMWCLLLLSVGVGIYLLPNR
Sequence of RNA-directed RNA polymerase (Hepacivirus hominis, UniProt O39930, G152E) (O39930 entry or part of it G152E): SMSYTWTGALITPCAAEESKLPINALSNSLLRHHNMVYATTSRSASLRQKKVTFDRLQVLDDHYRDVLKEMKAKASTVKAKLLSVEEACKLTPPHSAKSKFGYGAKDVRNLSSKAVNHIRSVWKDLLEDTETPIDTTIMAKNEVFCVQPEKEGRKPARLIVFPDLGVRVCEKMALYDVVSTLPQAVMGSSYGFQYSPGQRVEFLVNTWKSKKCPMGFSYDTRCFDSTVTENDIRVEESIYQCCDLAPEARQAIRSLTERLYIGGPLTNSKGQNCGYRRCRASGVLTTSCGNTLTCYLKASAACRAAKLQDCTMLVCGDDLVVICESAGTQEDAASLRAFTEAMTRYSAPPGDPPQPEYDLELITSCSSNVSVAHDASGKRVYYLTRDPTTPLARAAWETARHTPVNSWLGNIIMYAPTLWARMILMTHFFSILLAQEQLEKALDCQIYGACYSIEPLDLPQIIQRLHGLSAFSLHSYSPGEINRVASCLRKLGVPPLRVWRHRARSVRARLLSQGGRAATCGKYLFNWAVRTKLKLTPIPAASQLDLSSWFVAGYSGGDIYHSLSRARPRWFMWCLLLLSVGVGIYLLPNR

O=C(Nc1ccsc1-c1nc(O)c(O)c(C(=O)O)n1)OCc1c(Cl)cccc1Cl
IC50 [1]: 174 nM
IC50 [2]: 302 nM
IC50 [3]: 730 nM
IC50 [4]: 258 nM
IC50 [5]: 3780 nM
IC50 [6]: 882 nM
IC50 [7]: 5390 nM
IC50 [8]: > 500 nM
IC50 [9]: > 1000 nM
